# Data as given in PubChem BioAssay AID2612 (Southern Research Specialized Biocontainment Screening …, 2010).
# Activity calls are given as the source filed them. How the calls were made is not given here.
# Experiments:
# [1] = compound effect on polymyxin resistance, Typhi, OD600 (AID 2612); settings: Salmonella Typhi WT vs phoP-, polymyxin IC50 shift, OD600 24 h, at 150 µM; for polymyxin IC50 shift difference (WT - phoP-): stronger effect = higher value; for IC50 shift: measured here: polymyxin IC50 shift
# [2] = tested on: Salmonella Typhi WT vs phoP-, polymyxin IC50 shift, OD600 24 h; assay: as above
SMILES,polymyxin IC50 shift difference (WT - phoP-) [1],IC50 shift ([1]; WT strain),IC50 shift ([1]; phoP- strain),IC50 ([2]; WT polymyxin IC50 at 150 uM) [µM],IC50 ([2]; phoP- polymyxin IC50 at 150 uM) [µM],IC50 [2] [µM]
COc1c(N2CCN(C(=S)NCc3ccccc3)C(C)C2)c(F)cc2c(=O)c(C(=O)O)cn(C3CC3)c12 (centres undefined),-3.42 (inactive),-4.5,-1.08,7.25,3.83,–
O=C(Nc1ccc(Cl)cc1)N1CCCN(Cc2ccccc2F)C1,-11.9 (inactive),-12.1,-0.267,14.9,3.07,–
Cc1ccc(Nc2cc(C)c3c(O)cccc3n2)cc1C,0.62 (inactive),2.64,2.02,–,0.893,–
O=C1C2=C(Nc3ccccc3SC2c2ccco2)c2ccccc21 (centres undefined),–,1.28,-24.4,1.47,27.4,4
S=C(NCc1ccc(Cl)cc1)Nc1ccncc1,–,-0.561,-25.9,0.669,28.8,20
CCn1cc(C(=O)O)c(=O)c2cc(F)c(N3CCN(C(=S)NC(=O)c4ccccc4Cl)CC3)cc21,-3.77 (inactive),-1.35,2.42,3.45,0.0339,–
